Measurements: US20170014467A1, “COMPOSITION AND THE USE THEREOF” (INFINITUS (CHINA) COMPANY LTD., priority 2015, published 2017)

How the values were obtained:
[1] = system: hyperuricemia model of rats; assay: Comparative test in potassium oxonate hyperuricemia rats: serum uric acid, urea nitrogen and creatinine (Example 23); type: in vivo; details: 15 d intragastric, allopurinol 27 mg/kg + potassium oxonate 1.5 g/kg, mean ± SD
From the text: (license number: SOCK (Beijing) 2012-0001) were taken. […] Allopurinol, Tokyo chemical industry Co. […] Uric acid and urea nitrogen test kit were provided by Centronic GmbH company in German, with the batch numbers of UF03121HH6G and UF01121G[…] respectively, and creatinine test kit was provided by Shanghai Lanyi Technology Co. Ltd. with the batch number of […]. […] Modeling principle: the rats were intragastrically administered with the chemical uricase inhibitor, potassium oxonate to inhibit the uricase activity in the rats, which make the uric acid in their body unable to be decomposed and resulting in an increase of serum uric acid to replicate the hyperuricemia model of rats. The body weights of the rats were monitored, the blood samples were collected to measure the uric acid, creatinine and urea nitrogen before the experiments and at the 15th day of the administration, and the variance ratio of the serum uric acid levels was measured and calculated. Comparative Test […] Coicis semen 18, Cichorii Herba 8, […] Herba 8 and Pueraia Lobata Radix 8. The health food having the function of lowering uric acid provided in Comparative Example 2 of the present invention is prepared from the following components in parts by weight: Coicis semen 18, Motherwort 10, Cichorii Herba 8, […] Herba 8, Pueraia Lobata Radix 8 and tuna extract 0.1. […] Coicis semen 18, […] semen 9, Cichorii Herba 8, […] […]

[2] = Animal body weights in the comparative test (Example 23); type: in vivo, SD rats; details: allopurinol 27 mg/kg + potassium oxonate 1.5 g/kg, mean ± SD
Description: (§1) 105 SPF grade SD rats, all of which are male and have a body weight of 200±20 (g), provided by Beijing Vital River Laboratory Animal Technology Co., Ltd. (license number: SOCK (Beijing) 2012-0001) were taken. Potassium oxonate, Jinan Chenghuishuangda Chemical Co., Ltd. product with the batch number of 12042001, was prepared with 0.1% CMC-Na into a suspension of a concentration of 0.15 g/ml in an amount for 3 d each time and the stock was stored at 4° C. Allopurinol, Tokyo chemical industry Co. Ltd. product with the batch number of MYRYA-IR, was prepared with 0.1% CMC-Na into a suspension of a concentration of […] in an amount for 3 d each time and the stock was stored at 4° C. . Uric acid and urea nitrogen test kit were provided by Centronic GmbH company in German, with the batch numbers of UF03121HH6G and UF01121GG66G respectively, and creatinine test kit was provided by Shanghai Lanyi Technology Co. Ltd. with the batch number of R102APA.
(§2) The same volume of drinking water was intragastrically administered to the normal control group every day, and the potassium oxonate was intragastrically administered to each of the rest groups of rats every morning at 1.5 g·kg^−1·d^−1; the same volume of physiological saline was intragastrically administered to the model group in the afternoon; the allopurinol was intragastrically administered to the allopurinol group at 27 mg·kg^−1·d^−1 in the afternoon; the samples to be tested of different doses diluted to the same volume were intragastrically administered to the Sample 1 of high-dose and low-dose groups and the Sample 2 of high-dose and low-dose groups in the afternoon.
(§3) The body weights of the rats were monitored, the blood samples were collected to measure the uric acid, creatinine and urea nitrogen before the experiments and at the 15th day of the administration, and the variance ratio of the serum uric acid levels was measured and calculated.
Experimental group: Sample 1—the composition prepared in Example 1.

[3] = Animal body weights in the hyperuricemia rat experiment (Example 22); type: in vivo, SD rats; details: allopurinol 27 mg/kg + potassium oxonate 1.5 g/kg, intragastric, mean ± SD
Description: as §1
SD rats were adapted for 5 days in the experimental environment, and randomly divided by body weight into normal control group, model group, allopurinol group, Sample 1 (the composition of Chinese herbal medicines and tuna extract prepared in Example 18) high-dose group and low-dose group and Sample 2 (the composition of Chinese herbal medicines prepared in Example 18 excluding tuna extract) high-dose group and low-dose group. According to the clinical dose, the intragastric doses of Samples 1 and 2 were 5 times larger (0.2 ml/100 g) and 30 times larger (1.25 ml/100 g) than the recommended amount for human body for the low-dose groups and high-dose groups, respectively.
as §2, §3

[4] = system: hyperuricemia model of rats; assay: Potassium oxonate hyperuricemia model of rats: serum uric acid, urea nitrogen and creatinine after 15 d intragastric administration (Example 22); type: in vivo; details: allopurinol 27 mg/kg + potassium oxonate 1.5 g/kg
Description: 105 SPF grade SD rats, all of which are male and have a body weight of 200±20 (g), provided by Beijing Vital River Laboratory Animal Technology Co., Ltd. (license number: SOCK (Beijing) 2012-0001) were taken. Potassium oxonate, Jinan Chenghuishuangda Chemical Co., Ltd. product with the batch number of 12042001, was prepared with 0.1% CMC-Na into a suspension of a concentration of 0.15 g/ml in an amount for 3 d each time and the stock was stored at 4° C. Allopurinol, Tokyo chemical industry Co. Ltd. product with the batch number of MYRYA-IR, was prepared with 0.1% CMC-Na into a suspension of a concentration of 2.7 g/ml in an amount for 3 d each time and the stock was stored at 4° C. . Uric acid and urea nitrogen test kit were provided by Centronic GmbH company in German, with the batch numbers of UF03121HH6G and UF01121GG66G respectively, and creatinine test kit was provided by Shanghai Lanyi Technology Co. Ltd. with the batch number of R102APA. […]
The body weights of the rats were monitored, the blood samples were collected to measure the uric acid, creatinine and urea nitrogen before the experiments and at the 15th day of the administration, and the variance ratio of the serum uric acid levels was measured and calculated. […]

SMILES: Oc1ncnc2[nH]ncc12 [Allopurinol]
- Creatinine ([1]; model group 31.0 ± 3.3): 27.9 ± 2.2 µmol/L
- Uric Acid ([1]; model group 256.4 ± 41.3): 31.8 ± 10.3 µmol/L
- animal body weights, Before Experiments ([2]; baseline, N=15): 290 ± 13 g
- animal body weights, 1 week after treatment [2]: 322 ± 20 g
- animal body weights, 2 weeks after treatment [2]: 352 ± 24 g
- animal body weights, 3 weeks after treatment [2]: 366 ± 28 g
- animal body weights, 4 weeks after treatment [2]: 387 ± 29 g
- animal body weights, Before Experiments ([3]; baseline, N=15): 290 ± 13 g
- animal body weights, 1 week after treatment [3]: 322 ± 20 g
- animal body weights, 2 weeks after treatment [3]: 352 ± 24 g
- animal body weights, 3 weeks after treatment [3]: 366 ± 28 g
- animal body weights, 4 weeks after treatment [3]: 387 ± 29 g
- Creatinine ([4]; model group 31.0 ± 3.3, mean ± SD): 27.9 ± 2.2 µmol/L
- Uric Acid ([4]; model group 256.4 ± 41.3, mean ± SD): 31.8 ± 10.3 µmol/L
